Assay results as given in patent US20200010489A1, “ZWITTERIONIC SILATRANE-BASED MATERIAL AND ANTIFOULING SUBSTRATE CONTAINING SAME” (National Central University, priority 2018, published 2020).

Test: Chemical stability test of dry solid powders (FTIR, photographs)
Assay type: physicochemical
Settings: RH=79%
Experimental: The dry solid powders of SBSi and SBSiT obtained above are placed in a laboratory environment (RH=79%, temperature=24° C.) for 24 hours, and the chemical stabilities of SBSi and SBSiT are examined by Fourier transform infrared spectroscopy (FTIR). Referring to FIG. 1A, signals is centered at 1050 and 1612 cm^−1 corresponding to Vas(SO3^−) and Vb(N(CH3)^+), respectively, so as to ensure that all samples have a sulfobetaine moiety.

## CO[Si](CCC[N+](C)(C)CCCS(=O)(=O)[O-])(OC)OC [SBSi, sulfobetaine silane, reference compound]
Dry solid powder, temperature=24° C.
  FTIR spectra / absorption intensity after storage for 24 hours compared with before storage: significantly lower
Moisture environment, 24° C.
  appearance of solid after storage for 24 hours (hygroscopic properties): clearly deliquescent
